This is an account of results in patent US12103941B2, “Radiation-activatable platinum complex, its preparation and therapeutic use” (City University of Hong Kong, priority 2022, dated 2024).

Some results are limits rather than exact numbers.

The nature of data set [1]: Stability of complex 1 in the dark (HPLC). The data set is classed as physicochemical. The conditions noted are these: 10 μM, PBS pH 7.4, RPMI-1640 culture medium and A2780 cell lysate, no radiation. How it is done: The stability of complex 1, i.e., complex 1 in phosphate buffer saline (PBS) buffer, cell culture medium such as RPMI-1640, and cell lysate in the dark (i.e., in the absence of radiation) was determined. To determine the stability of complex 1 in PBS, complex 1 (10 μM) was dissolved in PBS buffer (pH 7.4, 1% DMF) and incubated at 310 K in the dark. At 24 h, the sample was analyzed by HPLC to determine the percentage of Pt(IV) remained. To determine the stability of complex 1 in complete RPMI-1640 culture medium (containing 10% FBS, 2 mM L-Glutamine, and 100 IU mL^−1 penicillin/streptomycin) or cell lysate (from A2780 cells by 1% triton X-100 lysis, protein concentration adjusted to 1.5 mg mL^−1), complex 1 was dissolved in these two solutions, respectively (with 1% DMF). At determined time intervals, 50 μL of samples were taken out and diluted with 200 μL MeOH with subsequent centrifugation at 14,000×g to remove proteins, and then the supernatant was analyzed by HPLC.

A short description of data set [2]: Sono-activation (sono-induced reduction) of complex 1 in PBS, HPLC. As to conditions: 4 W. The format is physicochemical. How it is done:
The sono-activation property of complex 1 was investigated. A PBS solution (with 1% DMF) containing 10 μM complex 1 with or without 5 mM sodium ascorbate (i.e. the sample), was continuously treated with ultrasound (1.75 MHz, 4 W) for a total period of time of 60 min. The sample temperature was monitored with an FLIR thermographic camera and maintained at 37° C. throughout the experiment. […] (FIGS. 6C to 6E), indicating the reduction of Pt(IV) to Pt(II) along with the dissociation of the axial ligand 1 and hydroxide ligand upon sono-activation (i.e. complex 1 undergoes a sono-induced reduction).

Data set [3] is described as follows: Photo-activation of complex 1 by 808 nm laser, HPLC. The conditions noted are these: 10 μM in PBS (1% DMF), 5 mM ascorbate, laser 808 nm, 3.3 mW/cm^2, 15 min. The data set is classed as physicochemical. The procedure:
The inventors have further investigated if complex 1 could be activated by other types of radiation such as EM radiation, in particular light such as infrared light. A PBS buffer solution (with 1% DMF) containing 10 μM complex 1 with 5 mM ascorbate in a quartz cuvette was irradiated with a laser (808 nm, 3.3 mW/cm^2) for 15 min under stirring. The sample was analysed by HPLC. […] In view of the similar profiles, the inventors believe that complex 1 would also release singlet oxygen upon photo-activation along with the aforementioned photo-induced reduction.

For the next data set, the system named is HeLa cells. Briefly: Cytotoxicity, MTT assay, HeLa cells. The conditions noted are these: IC50 without vs with radiation. The data set is classed as cell-based, human. The procedure:
(§1) The biological activity of complex 1 was evaluated. Human breast carcinoma MCF-7 cells, human cervix carcinoma HeLa cells, mammary breast carcinoma 4T1 cells, human lung carcinoma A549 cells, and cisplatin-resistant A549cisR cells were cultured in DMEM containing 10% FBS and 100 IU mL^−1 penicillin/streptomycin. Human ovarian carcinoma A2780 and A2780cisR cells were cultured in RPMI-1640 containing 10% FBS, 2 mM L-glutamine, and 100 IU mL^−1 penicillin/streptomycin. Human lung fibroblast MRC-5 cells were cultured in MEM containing 10% FBS, 1% NEAA, 1% L-Glutamine, 1% sodium pyruvate, and 100 IU mL^−1 penicillin/streptomycin. In every two passages of A2780cisR and A549cisR cells, 5 μM of cisplatin was added to maintain the platinum resistance. All the cells were cultured in humidified incubators at 37° C. with 5% CO2. Cell counting was performed with a hemocytometer. Cytotoxicity test was performed by exposing the cancer cells with complex 1. The viability of cancer cells exposed was evaluated by means of MTT assay. Specifically, the cells were first pre-seeded in 6-well plates until the confluency reached 80%. Then, the medium was removed and replaced with fresh medium containing different concentrations of complex 1 with 0.5% DMF (0, 2.5, 5, 12.5, 25, or 40 μM). After 30 min, the medium was aspirated, the well was washed with PBS for three times. […]
(Formazan colour is commonly taken as a measure of viable cells.)

Data set [4] has as its system different cancer cell lines (MCF-7, HeLa, 4T1, A549, A549cisR, A2780, A2780cisR). As to the kind of experiment: Cytotoxicity, MTT assay, all tested cancer cell lines (FIG. 9). The data set is classed as cell-based. The procedure:
as §1

The test system of data set [5] is Human lung fibroblast MRC-5 cells. As to the kind of experiment: Cell viability of normal MRC-5 cells (FIG. 10). The data set is classed as cell-based. As to conditions: absence of ultrasound, 24 h. The procedure: as §1

Regarding `CCCN1/C(=C/C=C2\CCCC(/C=C/C3=[N+](CCC)c4ccccc4C3(C)C)=C2Oc2ccc(CCC(=O)[O][Pt]3([NH2])([NH2])([OH])[O]C(=O)C4(CCC4)C(=O)[O]3)cc2)C(C)(C)c2ccccc21` [complex 1, cyaninplatin], the “time complex is stable in the dark (single HPLC peak)” value in data set [1] was no less than 6 h. Besides, the “complex 1 reduced (to Pt(II)) after sono-activation” value in data set [2] (10 μM in PBS (1% DMF), 5 mM ascorbate, ultrasound 1.75 MHz, about 60 min, 37° C.) was “about 95%”. For the same molecule, in data set [2] (10 μM in PBS, with or without 5 mM ascorbate, with or without ultrasound 1.75 MHz), the “conditions required for sono-induced reduction” value was “only occurs under the condition where both ascorbate and ultrasound are present”. The “photo-activation / photo-induced reduction to Pt(II) complex” value in data set [3] is given as “can be photo-activated”. Also, the “enhancement of cytotoxicity upon exposure to radiation” value in the data set on HeLa cells is given as “about 6 times”. Moreover, the “activity on tested cells upon ultrasound treatment” value in data set [4] (ultrasound 3.5 W, 15 min) is recorded as “very active”. Besides, in data set [4] (without the ultrasound treatment), the “toxicity to tested cells without ultrasound treatment” value is reported as “generally non-toxic”. Besides, the “toxicity to normal MRC-5 cells” value in data set [5] is listed as “non-toxic”.
